{"source": "patent US20040121474A1", "about": "“Detection and evaluation of chemically-mediated and ligand-mediated t-cell activation using optophoretic analysis” (Genoptix, Inc, priority 2002, published 2004)", "key": {"U937 cells": {"tested_on": "U937 cells", "experiment": "Escape velocity, effect of camptothecin on U937 cells", "format": "cell-based", "settings": "camptothecin-treated U937 cells", "protocol": "The objective of this experiment is to test the effects of camptothecin on the escape velocities of U937 cells. Camptothecin inhibits DNA topoisomerase I and induces apoptosis. A control and three concentrations of camptothecin were tested: […]. After adding the camptothecin, the flasks are incubated at 37° C. 5% CO2.\nAt the timepoints of 4 hours and 6 hours, 200 μl of cells are spun for 5 minutes at 5000 rpm. The cells are then resuspended in […] PBS/1% BSA and […] trypan blue.\nOptophoretic techniques have been investigated for their potential to detect the early onset of apoptosis in mammalian cells. U.S. patent application Ser. No. 10,240,611, for example, discloses multiple experiments in which U937 cells were treated with camptothecin and subsequently monitored Optophoretically using measured escape velocities. In one experiment, the escape velocity of the camptothecin-treated cells were measured at 4 and 6 hours after treatment. Noticeable changes in escape velocity were seen as early as 4 hours after treatment (see, e.g., FIG. 34). In that experiment, U937 cells were treated with 4 μg/ml of camptothecin and resuspended in PBS/1% BSA. Escape velocity measurements were taken after 4 and 6 hours. Table 18, reproduced below, includes the results of the escape velocity measurements for the test cells as well as the controls."}, "CEM/C2": {"tested_on": "CEM/C2", "settings": "CEM/C2 cell line obtained from ATCC; cited from earlier work"}}}
{"smiles": "CC[C@@]1(O)C(=O)OCc2c1cc1n(c2=O)Cc2cc3ccccc3nc2-1", "note": "[Camptothecin]", "values": [{"measurement": "time after treatment at which noticeable changes in escape velocity were seen", "setting": "U937 cells", "result": "≤ 4", "unit": "h"}, {"measurement": "less sensitive than parental cell line CCRF-CEM", "setting": "CEM/C2", "result": 970, "unit": "fold"}]}
